Results taken from the supplement of paper PMC10307832.

Legend:
Assay in all cases: relative viability (nuclei count vs DMSO), 5 days (fraction); higher = more cells survive
AT9283 + Olaparib = compound: O=C(Nc1c[nH]nc1-c1nc2ccc(CN3CCOCC3)cc2[nH]1)NC1CC1 [AT9283] + O=C(c1cc(Cc2n[nH]c(=O)c3ccccc23)ccc1F)N1CCN(C(=O)C2CC2)CC1 [Olaparib] (partner 8 µM)
Method in brief: (§1)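 Lung cancer cell lines were seeded in 1536-well plates and dosed by pin tool the next day, with either a single drug or a fixed anchor-drug dose combined with five library-drug doses (not always all listed) spaced in √10 steps. Five days later, one step fixed the cells and stained their nuclei (final 0.05% Triton X-100, 1% formaldehyde, 1 ug/ml Hoechst), and nuclei were counted on 4× images. Relative viability is the nuclei count in treated wells divided by the count in vehicle wells, and each value is the median of duplicate plates.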

AT9283 + Crizotinib = compound: O=C(Nc1c[nH]nc1-c1nc2ccc(CN3CCOCC3)cc2[nH]1)NC1CC1 [AT9283] + C[C@@H](Oc1cc(-c2cnn(C3CCNCC3)c2)cnc1N)c1c(Cl)ccc(F)c1Cl [Crizotinib] (partner 1 µM)
Method in brief: as §1

Erlotinib + Tozasertib = compound: C#Cc1cccc(Nc2ncnc3cc(OCCOC)c(OCCOC)cc23)c1 [Erlotinib] + Cc1cc(Nc2cc(N3CCN(C)CC3)nc(Sc3ccc(NC(=O)C4CC4)cc3)n2)n[nH]1 [Tozasertib] (partner 0.1 µM)
Method in brief: as §1

Erlotinib + Palbociclib = compound: C#Cc1cccc(Nc2ncnc3cc(OCCOC)c(OCCOC)cc23)c1 [Erlotinib] + CC(=O)c1c(C)c2cnc(Nc3ccc(N4CCNCC4)cn3)nc2n(C2CCCC2)c1=O [Palbociclib] (partner 0.5 µM)
Method in brief: as §1

AT9283 + Phenformin = compound: O=C(Nc1c[nH]nc1-c1nc2ccc(CN3CCOCC3)cc2[nH]1)NC1CC1 [AT9283] + N=C(N)NC(=N)NCCc1ccccc1 [Phenformin] (partner 250 µM)
Method in brief: as §1

Cell Line | relative viability (AT9283 + Olaparib; first compound 0.003 µM) | relative viability (AT9283 + Olaparib; first compound 0.03 µM) | relative viability (AT9283 + Olaparib; first compound 0.09487 µM) | relative viability (AT9283 + Olaparib; first compound 0.3 µM) | relative viability (AT9283 + Crizotinib; first compound 0.003 µM) | relative viability (AT9283 + Crizotinib; first compound 0.03 µM) | relative viability (AT9283 + Crizotinib; first compound 0.09487 µM) | relative viability (AT9283 + Crizotinib; first compound 0.3 µM) | relative viability (Erlotinib + Tozasertib; first compound 0.02 µM) | relative viability (Erlotinib + Tozasertib; first compound 0.2 µM) | relative viability (Erlotinib + Tozasertib; first compound 0.6325 µM) | relative viability (Erlotinib + Tozasertib; first compound 2 µM) | relative viability (Erlotinib + Palbociclib; first compound 0.02 µM) | relative viability (Erlotinib + Palbociclib; first compound 0.2 µM) | relative viability (Erlotinib + Palbociclib; first compound 0.6325 µM) | relative viability (Erlotinib + Palbociclib; first compound 2 µM) | relative viability (AT9283 + Phenformin; first compound 0.003 µM) | relative viability (AT9283 + Phenformin; first compound 0.03 µM) | relative viability (AT9283 + Phenformin; first compound 0.09487 µM) | relative viability (AT9283 + Phenformin; first compound 0.3 µM)
Calu-6 | 0.575 | 0.228 | 0.178 | 0.197 | 0.742 | 0.253 | 0.238 | 0.291 | – | – | – | – | – | – | – | – | – | – | – | –
A-427 | 0.652 | 0.428 | 0.292 | 0.27 | 0.851 | 0.482 | 0.173 | 0.178 | 0.251 | 0.225 | 0.197 | 0.162 | 0.485 | 0.492 | 0.529 | 0.53 | 0.334 | 0.178 | 0.133 | 0.145
NCI-H2170 | 0.613 | 0.385 | 0.14 | 0.146 | 1.22 | 0.73 | 0.236 | 0.198 | 0.811 | 0.73 | 0.607 | 0.324 | 0.374 | 0.36 | 0.379 | 0.282 | 0.433 | 0.375 | 0.177 | 0.14
NCI-H460 | 0.479 | 0.307 | 0.127 | 0.113 | 0.729 | 0.786 | 0.0665 | 0.0361 | 0.44 | 0.191 | 0.109 | 0.0585 | 0.257 | 0.14 | 0.198 | 0.183 | 0.517 | 0.508 | 0.0947 | 0.0363
NCI-H2405 | 0.941 | 0.615 | 0.333 | 0.217 | 0.826 | 0.634 | 0.272 | 0.217 | 0.765 | 0.722 | 0.686 | 0.565 | 0.534 | 0.521 | 0.535 | 0.54 | 0.415 | 0.362 | 0.28 | 0.251
NCI-H2023 | 0.511 | 0.409 | 0.21 | 0.0856 | 0.704 | 0.471 | 0.196 | 0.123 | 0.365 | 0.241 | 0.165 | 0.188 | 0.393 | 0.351 | 0.297 | 0.225 | 0.448 | 0.389 | 0.193 | 0.131
NCI-H1975 | 0.731 | 0.723 | 0.783 | 0.647 | 0.945 | 0.903 | 0.695 | 0.348 | 0.773 | 0.549 | 0.251 | 0.142 | 0.539 | 0.611 | 0.639 | 0.472 | 0.418 | 0.403 | 0.356 | 0.183
SW 900 | 0.882 | 0.783 | 0.507 | 0.312 | – | – | – | – | 0.514 | 0.487 | 0.33 | 0.257 | 0.492 | 0.48 | 0.472 | 0.398 | 0.63 | 0.595 | 0.486 | 0.256
EBC-1 | 0.669 | 0.334 | 0.18 | 0.145 | 0.212 | 0.178 | 0.172 | 0.181 | – | – | – | – | – | – | – | – | – | – | – | –
NCI-H2342 | 0.476 | 0.434 | 0.384 | 0.292 | – | – | – | – | 0.444 | 0.495 | 0.491 | 0.361 | 0.469 | 0.439 | 0.457 | 0.591 | 0.592 | 0.423 | 0.534 | 0.341
NCI-H1299 | 0.911 | 0.657 | 0.366 | 0.316 | 1.01 | 0.475 | 0.339 | 0.346 | – | – | – | – | – | – | – | – | – | – | – | –
NCI-H1793 | 0.986 | 0.841 | 0.451 | 0.257 | – | – | – | – | 0.307 | 0.258 | 0.235 | 0.161 | 0.252 | 0.241 | 0.247 | 0.241 | 0.301 | 0.352 | 0.138 | 0.219
NCI-H1648 | 0.636 | 0.584 | 0.254 | 0.461 | – | – | – | – | 0.489 | 0.434 | 0.555 | 0.252 | 0.337 | 0.277 | 0.293 | 0.272 | – | – | – | –
NCI-H522 | 0.619 | 0.553 | 0.453 | 0.575 | – | – | – | – | 0.493 | 0.573 | 0.508 | 0.465 | 0.908 | 0.969 | 0.883 | 0.824 | 0.555 | 0.481 | 0.44 | 0.377
NCI-H1563 | – | – | – | – | 0.955 | 0.713 | 0.686 | 0.658 | – | – | – | – | – | – | – | – | 0.638 | 0.663 | 0.605 | 0.556
NCI-H1623 | – | – | – | – | – | – | – | – | 0.437 | 0.315 | 0.29 | 0.209 | – | – | – | – | 0.597 | 0.578 | 0.55 | 0.336
A549 | 0.358 | 0.0601 | 0.0514 | 0.069 | 0.717 | 0.0751 | 0.0711 | 0.0659 | – | – | – | – | – | – | – | – | 0.284 | 0.0777 | 0.0526 | 0.0427
NCI-H596 | 0.653 | 0.663 | 0.619 | 0.567 | 0.897 | 0.974 | 0.966 | 0.707 | 0.805 | 0.848 | 0.69 | 0.722 | – | – | – | – | 0.743 | 0.82 | 0.608 | 0.564
IA-LM | 0.998 | 0.524 | 0.243 | 0.145 | 0.846 | 0.261 | 0.0839 | 0.132 | – | – | – | – | – | – | – | – | – | – | – | –
NCI-H1395 | 0.414 | 0.46 | 0.38 | 0.358 | – | – | – | – | 0.837 | 0.772 | 0.712 | 0.566 | 0.619 | 0.532 | 0.657 | 0.571 | 0.391 | 0.43 | 0.316 | 0.321
NCI-H1792 | 0.468 | 0.491 | 0.358 | 0.252 | 0.933 | 0.993 | 0.984 | 0.811 | – | – | – | – | 0.612 | 0.541 | 0.639 | – | – | 0.255 | 0.333 | 0.148
